This passage reports IC50 results from patent US6908931B2, “Tetrahydroisoquinoline derivatives as melatonin MT2 antagonists” (Bristol-Myers Squibb Company, priority 2003, dated 2005).

The target of the test is T1, human MT2 receptor (Homo sapiens, UniProt P49286).
T1 construct: melatonin MT1 and MT2 receptors cDNA were individually subcloned into pcDNA3 and introduced into NIH-3T3 cells using Lipofectamine; expressed in transfected cells
T1 sequence (P49286 1-362): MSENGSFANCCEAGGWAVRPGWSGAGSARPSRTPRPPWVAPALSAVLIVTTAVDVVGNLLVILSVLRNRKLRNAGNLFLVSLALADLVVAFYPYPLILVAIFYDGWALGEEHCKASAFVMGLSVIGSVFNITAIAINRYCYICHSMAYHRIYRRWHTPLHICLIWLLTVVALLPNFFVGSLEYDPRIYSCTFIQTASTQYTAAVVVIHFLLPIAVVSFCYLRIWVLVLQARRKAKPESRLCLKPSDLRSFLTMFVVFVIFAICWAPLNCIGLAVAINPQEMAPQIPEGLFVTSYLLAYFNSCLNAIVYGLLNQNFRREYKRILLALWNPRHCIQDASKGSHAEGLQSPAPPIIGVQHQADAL
Nature of the test: Melatonin receptor binding assay (MT2), 2-[125I]-iodomelatonin. The protocol: Melatonin receptor binding assay.
Membrane homogenates: melatonin MT1 and MT2 receptors cDNA were individually subcloned into pcDNA3 and introduced into NIH-3T3 cells using Lipofectamine. […] For preparing membrane homogenates, pellets are thawed on ice, and re-suspended in TME buffer in the presence of 10 μg/ml aprotinin and leupeptin, and 100 μM phenylmethylsulfonylfluoride. The cells were then homogenized using a dounce homogenizer, and centrifuged. The resulting pellet was re-suspended with dounce homogenizer in TME (supplemented with the above protease inhibitors) and frozen. On the day of assay, a small aliquot was thawed on ice and re-suspended in the ice cold TME (1:50-1:100 v/v) and held on ice until assayed. Incubation is at 37° C. for 1 hour. Reaction is terminated by filtration. Filters were washed 3 times.

Where [1] appears, read: membrane homogenates of NIH-3T3 cells expressing MT2, 2-[125I]-iodomelatonin 0.2 nM, 37° C., 1 hour, read-out: MT2 IC50.

Read-outs that look alike come from different tables or passages of the source. Where only a bound is given, the exact number is not on record here.

As usually defined, the IC50 is the concentration that gives 50% inhibition. Take `COc1cc2c(cc1OC)C(CC(c1ccccc1)c1ccccc1)N(S(C)(=O)=O)CC2` (centres unmarked) [Example 12]: the IC50 under setting [1] is below 100 nM. On the same count and under the same terms, for `CCC(=O)N1CCc2ccc(OC)cc2C1CCc1ccc(F)cc1` (centres unmarked) [Example 119] the value was below 100 nM.

For `COc1cc2c(cc1OC)C(CC(c1ccccc1)c1ccccc1)N(C(=O)c1ccccc1)CC2` (centres unmarked) [Example 6, N-benzoyl 1-(2,2-diphenyleth-1-yl)-6,7-dimethoxy-1,2,3,4-tetrahydroisoquinoline], the IC50 under setting [1] was in the range of 100 to 1000 nM. Same read-out and setting: for `O=C(C1CC1)N1CCc2cc3c(cc2C1CCc1ccc(F)cc1)OCO3` (centres unmarked) [Example 95] the value was below 100 nM.

With `CC(=O)N1CCc2cc3c(cc2C1CCc1ccc(F)cc1)OCO3` (centres unmarked) [Example 94], the IC50 under setting [1] lay in the range of 100 to 1000 nM. The same measure, in the same setting: the result for `CC(=O)N1CCc2cc3c(cc2C1CC(c1ccccc1)c1ccccc1)OCO3` (centres unmarked) [Example 91] reads 100 to 1000 nM; that for `COc1ccc2c(c1)C(CC(c1ccccc1)c1ccccc1)N(C(=O)c1ccc([N+](=O)[O-])cc1)CC2` (centres unmarked) [Example 81], 100 to 1000 nM. The same measure, in the same setting: the result for `CCCCCCC(=O)N1CCc2cc(OC)c(OC)cc2C1CC(c1ccccc1)c1ccccc1` (centres unmarked) [Example 45] reads 100 to 1000 nM; that for `CC(=O)OCC(=O)N1CCc2cc3c(cc2C1CCc1ccc(Cl)cc1)OCO3` (centres unmarked) [Example 146], 100 to 1000 nM. Still for that read-out and setting: the result for `CCCC(=O)N1CCc2cc(OC)c(OC)cc2C1CC(c1ccccc1)c1ccccc1` (centres unmarked) [Example 4, N-butyryl 1-(2,2-diphenyleth-1-yl)-6,7-dimethoxy-1,2,3,4-tetrahydroisoquinoline] reads below 100 nM; that for `CCCCCCCCCC(=O)N1CCc2cc(OC)c(OC)cc2C1CCc1ccccc1` (centres unmarked) [Example 62], 100 to 1000 nM. On to `O=C(c1ccno1)N1CCc2cc3c(cc2C1CCc1ccc(Cl)cc1)OCO3` (centres unmarked) [Example 145], for which the IC50 under setting [1] lay within 100 to 1000 nM. For the compound `COc1cc2c(cc1OC)C(CCc1ccccc1)N(C(=O)COc1ccccc1)CC2` (centres unmarked) [Example 56], under setting [1], the IC50 was in the range of 100 to 1000 nM. `O=C(OCc1ccccc1)N1CCc2cc3c(cc2C1CCc1ccc(F)cc1)OCO3` (centres unmarked) [Example 100] had an IC50 of 100 to 1000 nM.

With `COCC(=O)N1CCc2cc3c(cc2C1CCc1ccc(Cl)cc1)OCO3` (centres unmarked) [Example 140], the 50% inhibitory concentration (IC50) under setting [1] was below 100 nM. Same read-out and setting: the result for `O=C(C=Cc1ccccc1)N1CCc2cc3c(cc2C1CCc1ccc(F)cc1)OCO3` (centres unmarked) [Example 108] reads 100 to 1000 nM; that for `COc1cc2c(cc1Br)CCN(C(=O)c1ccc(C)cc1)C2CC(c1ccccc1)c1ccccc1` (centres unmarked) [Example 39], 100 to 1000 nM; that for `COc1ccc2c(c1)C(CCc1ccc(F)cc1)N(C(=O)CC(C)(C)C)CC2` (centres unmarked) [Example 121], 100 to 1000 nM. For the compound `COc1cc2c(cc1OC)C(CC(c1ccccc1)c1ccccc1)N(C(=O)c1ccc(C(F)(F)F)cc1)CC2` (centres unmarked) [Example 54], under setting [1], the IC50 was 100 to 1000 nM.

Regarding `CCC(=O)N1CCc2cc3c(cc2C1CCc1ccc(F)cc1)OCO3` (centres unmarked) [Example 105], the IC50 under setting [1] was below 100 nM. Still for that read-out and setting: the result for `CCCCCCC(=O)N1CCc2cc(Br)c(OC)cc2C1CC(c1ccccc1)c1ccccc1` (centres unmarked) [Example 35] reads below 100 nM; that for `CC(=O)N1CCc2cc3c(cc2C1CCc1ccc(Cl)cc1)OCO3` (centres unmarked) [Example 138], 100 to 1000 nM.

`CCNC(=O)N1CCc2cc(OC)c(OC)cc2C1CCc1cccc(OC)c1` (centres unmarked) [Example 88]: under setting [1], the IC50 was below 100 nM. The same measure, in the same setting: the result for `CCCCCC(=O)N1CCc2cc(OC)c(OC)cc2C1CCc1ccccc1` (centres unmarked) [Example 60] reads 100 to 1000 nM; that for `COc1cc2c(cc1OC)C(CCc1ccccc1)N(C(=O)C1CCC1)CC2` (centres unmarked) [Example 57], below 100 nM; that for `O=C(C=Cc1ccccc1)N1CCc2cc3c(cc2C1CCc1ccc(Cl)cc1)OCO3` (centres unmarked) [Example 150], 100 to 1000 nM. The same measure, in the same setting: the result for `COc1ccc2c(c1)C(CCc1ccc(F)cc1)N(C(=O)C=Cc1ccccc1)CC2` (centres unmarked) [Example 122] reads 100 to 1000 nM; that for `COCC(=O)N1CCc2cc3c(cc2C1CCc1ccc(F)cc1)OCO3` (centres unmarked) [Example 96], below 100 nM.

Consider `COc1cc2c(cc1OC)C(CC(c1ccccc1)c1ccccc1)N(C(=O)C1CCC1)CC2` (centres unmarked) [Example 43], for which the IC50 under setting [1] is 100 to 1000 nM.
